{"source": "patent US20130231365A1", "about": "“Treatment of Inflammation with Certain Alpha-7 Nicotinic Acid Receptor Agonists in Combination with Acetylcholinesterase Inhibitors” (priority 2010, published 2013)", "biological_target": "T1, human alpha7 receptor (Homo sapiens, UniProt P36544)", "T1 construct": "expressed in transfected cells; host or cells: Xenopus laevis oocytes (cDNA injected into the germinal vesicle)", "T1 sequence (P36544 23-502)": "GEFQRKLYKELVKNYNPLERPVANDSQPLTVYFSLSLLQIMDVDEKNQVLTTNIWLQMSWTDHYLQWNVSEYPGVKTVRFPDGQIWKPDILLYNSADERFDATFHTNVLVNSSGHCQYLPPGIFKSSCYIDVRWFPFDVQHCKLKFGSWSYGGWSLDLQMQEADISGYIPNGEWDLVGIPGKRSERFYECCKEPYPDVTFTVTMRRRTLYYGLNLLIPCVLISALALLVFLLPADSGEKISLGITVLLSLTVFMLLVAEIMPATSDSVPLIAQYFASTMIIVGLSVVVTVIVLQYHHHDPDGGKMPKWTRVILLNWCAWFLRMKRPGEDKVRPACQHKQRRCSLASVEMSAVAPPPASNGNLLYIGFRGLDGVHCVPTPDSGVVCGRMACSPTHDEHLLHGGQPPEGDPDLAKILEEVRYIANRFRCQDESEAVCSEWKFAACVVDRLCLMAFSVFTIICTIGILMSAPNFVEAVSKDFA", "experiment": "Acetylcholine-evoked currents in Xenopus oocytes with co-application of the alpha7 agonist", "format": "cell-based", "procedure": "FIG. 1 depicts a protocol for administering acetylcholine and (R)-7-chloro-N-(quinuclidin-3-yl)benzo[b]thiophene-2-carboxamide hydrochloride monohydrate to Xenopus oocytes.\nFIG. 2 depicts the results of an assay showing the action of acetylcholine and (R)-7-chloro-N-(quinuclidin-3-yl)benzo[b]thiophene-2-carboxamide hydrochloride monohydrate.\nIn the study described below currents were measures in Xenopus oocytes. Acetylcholine at 40 micromolar was administered prior to administration of (R)-7-chloro-N-(quinuclidin-3-yl)benzo[b]thiophene-2-carboxamide is (R)-7-chloro-N-(quinuclidin-3-yl)benzo[b]thiophene-2-carboxamide hydrochloride monohydrate at 0.3 nM using the protocol depicted in FIG. 1. Currents were normalized to unity versus the average acetylcholine-evoked current measured during the stabilization period (4 time points).\nThe EC50 for an alpha7 receptor agonist can be measured using Xenopus oocytes as described previously (Boess et al. 2007 J Pharm Exp Therap 321:716; Methfessel et al., 1986 Pflueg Arch Eur J Physiol 407:577-588; Schnizler et at 2003 Receptors Channels 9:41-48). […] Solutions of test compounds in normal frog Ringer's solution are superfused through the recording chamber for 20 s while the voltage-clamp current is recorded. […] By testing with various concentration of the alpha7 receptor agonist the EC50 for agonism can be determined.", "data": [{"smiles": "Cl.O=C(N[C@H]1CN2CCC1CC2)c1cc2cccc(Cl)c2s1", "note": "[(R)-7-chloro-N-(quinuclidin-3-yl)benzo[b]thiophene-2-carboxamide hydrochloride monohydrate]", "values": [{"measurement": "acetylcholine-evoked current, normalized to unity versus the average current of the stabilization period", "setting": "acetylcholine 40 micromolar given before compound at 0.3 nM, after 8 and 16 minutes incubation, average of 3 cells, FIG. 2", "result": "large current increase"}, {"measurement": "effect when administered with acetylcholine", "setting": "very low concentrations of compound, well below the expected EC50", "result": "synergistic effect"}]}]}
